Results taken from ChEMBL document CHEMBL3865781, “Recent advances in the discovery and development of antibacterial agents targeting the cell-division protein FtsZ” (Bioorg Med Chem, 2016).
pIC50: −log10 of the molar value. ≈ marks a conversion by molar mass, not a printed value.

system: Escherichia coli; assay: Antibacterial activity against Escherichia coli ATCC 25922 after 18 hrs by broth microdilution method; format: functional; conditions: ATCC 25922, 18 h

Row | Structure (SMILES) | MIC [µg/mL]
1 | C=CCc1ccc(O)c(OC)c1 [EUGENOL] | 32 to 128 (≈ 195 to 780 µM)
2 | O=C(O)/C=C/c1ccc(O)cc1 [COUMARIC ACID] | 32 to 128 (≈ 195 to 780 µM)
3 | COc1ccc2cc3[n+](cc2c1OCCCOc1ccc(Cl)cc1)CCc1cc2c(cc1-3)OCO2.[Br-] | 32 to 128
4 | CC1=CC(=O)c2c(O)cccc2C1=O [PLUMBAGIN] | 32 to 128 (≈ 170 to 680 µM)
5 | O=C(O)/C=C/c1ccc(O)c(O)c1 [CAFFEIC ACID] | 32 to 128 (≈ 178 to 710 µM)
6 | COc1ccc(/C=C/C(=O)O)cc1OC [O,O'-DIMETHYLCAFFEIC ACID] | 32 to 128 (≈ 154 to 615 µM)
7 | COc1cc(/C=C/C(=O)CC(=O)/C=C/c2ccc(O)c(OC)c2)ccc1O [CURCUMIN] | 32 to 128 (≈ 86.9 to 347 µM)
8 | COc1cc2ccc(=O)oc2cc1O [SCOPOLETIN] | 32 to 128 (≈ 167 to 666 µM)

system: Staphylococcus aureus; assay: Antibacterial activity against methicillin-resistant Staphylococcus aureus ATCC BAA-41 after 18 hrs by broth microdilution method; format: functional; conditions: ATCC BAA-41, 18 h

Row | Structure (SMILES) | MIC [µg/mL]
9 | C=CCc1ccc(O)c(OC)c1 [EUGENOL] | 2 to 8 (≈ 12.2 to 48.7 µM)
10 | O=C(O)/C=C/c1ccc(O)cc1 [COUMARIC ACID] | 2 to 8 (≈ 12.2 to 48.7 µM)
11 | COc1ccc2cc3[n+](cc2c1OCCCOc1ccc(Cl)cc1)CCc1cc2c(cc1-3)OCO2.[Br-] | 2 to 8
12 | CC1=CC(=O)c2c(O)cccc2C1=O [PLUMBAGIN] | 2 to 8 (≈ 10.6 to 42.5 µM)
13 | O=C(O)/C=C/c1ccc(O)c(O)c1 [CAFFEIC ACID] | 2 to 8 (≈ 11.1 to 44.4 µM)
14 | COc1ccc(/C=C/C(=O)O)cc1OC [O,O'-DIMETHYLCAFFEIC ACID] | 2 to 8 (≈ 9.61 to 38.4 µM)
15 | COc1cc(/C=C/C(=O)CC(=O)/C=C/c2ccc(O)c(OC)c2)ccc1O [CURCUMIN] | 2 to 8 (≈ 5.43 to 21.7 µM)
16 | COc1cc2ccc(=O)oc2cc1O [SCOPOLETIN] | 2 to 8 (≈ 10.4 to 41.6 µM)

system: Bacillus subtilis; assay: Antibacterial activity against Bacillus subtilis 168 harboring trpC2 after 4 hrs; format: functional; conditions: subsp. subtilis str. 168, 4 h

Row | Structure (SMILES) | pIC50
17 | COc1cc(/C=C/C(=O)CC(=O)/C=C/c2ccc(O)c(OC)c2)ccc1O [CURCUMIN] | 4.77

system: Escherichia coli; assay: Antibacterial activity against Escherichia coli K12 MG1655 after 4 hrs; format: functional; conditions: K-12 substr. MG1655, 4 h

Row | Structure (SMILES) | pIC50
18 | COc1cc(/C=C/C(=O)CC(=O)/C=C/c2ccc(O)c(OC)c2)ccc1O [CURCUMIN] | 4.24

biological target: T1, Cell division protein FtsZ (Staphylococcus aureus, UniProt P0A031); assay: Inhibition of Staphylococcus aureus N-terminal His6-tagged FtsZ GTPase activity expressed in Escherichia coli BL21(DE3) preincubated for 10 mins followed by GTP addition after 30 mins by cytophos phosphate assay; conditions: not given
T1 sequence (P0A031 whole entry): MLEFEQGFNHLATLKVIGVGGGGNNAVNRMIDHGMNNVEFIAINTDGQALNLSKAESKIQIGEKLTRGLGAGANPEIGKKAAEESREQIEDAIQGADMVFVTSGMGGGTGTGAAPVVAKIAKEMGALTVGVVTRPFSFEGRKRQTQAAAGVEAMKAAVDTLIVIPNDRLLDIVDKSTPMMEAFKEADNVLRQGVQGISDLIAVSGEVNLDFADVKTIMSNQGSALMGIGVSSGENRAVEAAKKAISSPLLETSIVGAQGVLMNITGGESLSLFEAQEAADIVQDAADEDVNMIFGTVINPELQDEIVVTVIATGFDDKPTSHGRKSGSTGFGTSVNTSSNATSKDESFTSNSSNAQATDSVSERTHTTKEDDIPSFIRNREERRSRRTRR

Row | Structure (SMILES) | pIC50
19 | COc1ccc2cc3[n+](cc2c1OCCCOc1ccc(Cl)cc1)CCc1cc2c(cc1-3)OCO2.[Br-] | 4.18

system: not listed separately; assay: Inhibition of Escherichia coli FtsZ polymerization expressed in Escherichia coli BL21 assessed as reduction in light scattering intensity in presence of GTP by fluorescence spectrometric analysis; conditions: not given

Row | Structure (SMILES) | pIC50
20 | C=CCc1ccc(O)c(OC)c1 [EUGENOL] | < 3.60
21 | O=C(O)/C=C/c1ccc(O)cc1 [COUMARIC ACID] | 3.72
22 | O=C(O)/C=C/c1ccc(O)c(O)c1 [CAFFEIC ACID] | 3.97
23 | COc1ccc(/C=C/C(=O)O)cc1OC [O,O'-DIMETHYLCAFFEIC ACID] | < 3.60
24 | COc1cc2ccc(=O)oc2cc1O [SCOPOLETIN] | 4.39

system: not listed separately; assay: Inhibition of Escherichia coli FtsZ GTPase activity expressed in Escherichia coli BL21 preincubated for 5 mins followed by GTP addition after 15 mins by malachite green based spectrophotometric analysis; conditions: not given

Row | Structure (SMILES) | pIC50
25 | COc1cc2ccc(=O)oc2cc1O [SCOPOLETIN] | 4.64

system: Bacillus subtilis; assay: Inhibition of Bacillus subtilis FtsZ polymerization expressed in Escherichia coli BL21(DE3) pLysS at 2 uM preincubated for 15 mins followed by GTP addition by spectrofluorometric analysis relative to control; conditions: not given

Row | Structure (SMILES) | inhibition [%]
26 | CC1=CC(=O)c2c(O)cccc2C1=O [PLUMBAGIN] | 26

system: Bacillus subtilis; assay: Inhibition of Bacillus subtilis FtsZ polymerization expressed in Escherichia coli BL21(DE3) pLysS at 5 uM preincubated for 15 mins followed by GTP addition by spectrofluorometric analysis relative to control; conditions: not given

Row | Structure (SMILES) | inhibition [%]
27 | CC1=CC(=O)c2c(O)cccc2C1=O [PLUMBAGIN] | 33

system: Bacillus subtilis; assay: Inhibition of Bacillus subtilis FtsZ polymerization expressed in Escherichia coli BL21(DE3) pLysS at 10 uM preincubated for 15 mins followed by GTP addition by spectrofluorometric analysis relative to control; conditions: not given

Row | Structure (SMILES) | inhibition [%]
28 | CC1=CC(=O)c2c(O)cccc2C1=O [PLUMBAGIN] | 45

system: Bacillus subtilis; assay: Inhibition of Bacillus subtilis FtsZ GTPase activity expressed in Escherichia coli BL21(DE3) pLysS at 24 uM preincubated for 15 mins followed by GTP addition after 10 mins by malachite green ammonium molybdate assay relative to control; conditions: not given

Row | Structure (SMILES) | inhibition [%]
29 | CC1=CC(=O)c2c(O)cccc2C1=O [PLUMBAGIN] | 58

system: Enterococcus faecalis; assay: Antimicrobial activity against vancomycin-resistant Enterococcus faecalis after 18 hrs by broth microdilution method; format: functional; conditions: not given

Row | Structure (SMILES) | MIC [µg/mL]
30 | C=CCc1ccc(O)c(OC)c1 [EUGENOL] | 4 to 16 (≈ 24.4 to 97.4 µM)
31 | CC1=CC(=O)c2c(O)cccc2C1=O [PLUMBAGIN] | 4 to 16 (≈ 21.3 to 85 µM)

system: Enterococcus faecalis; assay: Antimicrobial activity against vancomycin-sensitive Enterococcus faecalis after 18 hrs by broth microdilution method; format: functional; conditions: not given

Row | Structure (SMILES) | MIC [µg/mL]
32 | C=CCc1ccc(O)c(OC)c1 [EUGENOL] | 4 to 16 (≈ 24.4 to 97.4 µM)
33 | O=C(O)/C=C/c1ccc(O)cc1 [COUMARIC ACID] | 4 to 16 (≈ 24.4 to 97.5 µM)
34 | COc1ccc2cc3[n+](cc2c1OCCCOc1ccc(Cl)cc1)CCc1cc2c(cc1-3)OCO2.[Br-] | 4 to 16
35 | CC1=CC(=O)c2c(O)cccc2C1=O [PLUMBAGIN] | 4 to 16 (≈ 21.3 to 85 µM)
36 | O=C(O)/C=C/c1ccc(O)c(O)c1 [CAFFEIC ACID] | 4 to 16 (≈ 22.2 to 88.8 µM)
37 | COc1ccc(/C=C/C(=O)O)cc1OC [O,O'-DIMETHYLCAFFEIC ACID] | 4 to 16 (≈ 19.2 to 76.8 µM)
38 | COc1cc(/C=C/C(=O)CC(=O)/C=C/c2ccc(O)c(OC)c2)ccc1O [CURCUMIN] | 4 to 16 (≈ 10.9 to 43.4 µM)
39 | COc1cc2ccc(=O)oc2cc1O [SCOPOLETIN] | 4 to 16 (≈ 20.8 to 83.3 µM)

system: Klebsiella pneumoniae; assay: Antibacterial activity against Klebsiella pneumoniae ATCC BAA-1144 after 18 hrs by broth microdilution method; format: functional; conditions: ATCC BAA-1144, 18 h

Row | Structure (SMILES) | MIC [µg/mL]
40 | C=CCc1ccc(O)c(OC)c1 [EUGENOL] | 32 to 128 (≈ 195 to 780 µM)
41 | O=C(O)/C=C/c1ccc(O)cc1 [COUMARIC ACID] | 32 to 128 (≈ 195 to 780 µM)
42 | COc1ccc2cc3[n+](cc2c1OCCCOc1ccc(Cl)cc1)CCc1cc2c(cc1-3)OCO2.[Br-] | 32 to 128
43 | CC1=CC(=O)c2c(O)cccc2C1=O [PLUMBAGIN] | 32 to 128 (≈ 170 to 680 µM)
44 | O=C(O)/C=C/c1ccc(O)c(O)c1 [CAFFEIC ACID] | 32 to 128 (≈ 178 to 710 µM)
45 | COc1ccc(/C=C/C(=O)O)cc1OC [O,O'-DIMETHYLCAFFEIC ACID] | 32 to 128 (≈ 154 to 615 µM)
46 | COc1cc(/C=C/C(=O)CC(=O)/C=C/c2ccc(O)c(OC)c2)ccc1O [CURCUMIN] | 32 to 128 (≈ 86.9 to 347 µM)
47 | COc1cc2ccc(=O)oc2cc1O [SCOPOLETIN] | 32 to 128 (≈ 167 to 666 µM)

system: Staphylococcus aureus; assay: Antibacterial activity against methicillin-sensitive Staphylococcus aureus after 18 hrs by broth microdilution method; format: functional; conditions: not given

Row | Structure (SMILES) | MIC [µg/mL]
48 | C=CCc1ccc(O)c(OC)c1 [EUGENOL] | 2 to 8 (≈ 12.2 to 48.7 µM)
49 | O=C(O)/C=C/c1ccc(O)cc1 [COUMARIC ACID] | 2 to 8 (≈ 12.2 to 48.7 µM)
50 | COc1ccc2cc3[n+](cc2c1OCCCOc1ccc(Cl)cc1)CCc1cc2c(cc1-3)OCO2.[Br-] | 2 to 8
51 | CC1=CC(=O)c2c(O)cccc2C1=O [PLUMBAGIN] | 2 to 8 (≈ 10.6 to 42.5 µM)
52 | O=C(O)/C=C/c1ccc(O)c(O)c1 [CAFFEIC ACID] | 2 to 8 (≈ 11.1 to 44.4 µM)
53 | COc1ccc(/C=C/C(=O)O)cc1OC [O,O'-DIMETHYLCAFFEIC ACID] | 2 to 8 (≈ 9.61 to 38.4 µM)
54 | COc1cc(/C=C/C(=O)CC(=O)/C=C/c2ccc(O)c(OC)c2)ccc1O [CURCUMIN] | 2 to 8 (≈ 5.43 to 21.7 µM)
55 | COc1cc2ccc(=O)oc2cc1O [SCOPOLETIN] | 2 to 8 (≈ 10.4 to 41.6 µM)

system: Mycobacterium tuberculosis; assay: Antimycobacterial activity against Mycobacterium tuberculosis H37Rv after 2 weeks; format: functional; conditions: 336 h

Row | Structure (SMILES) | MIC [µg/mL]
56 | COc1cc2ccc(=O)oc2cc1O [SCOPOLETIN] | 42 (≈ 219 µM)
